{
  "source": "paper PMC7827406",
  "about": "“Structure–Activity Relationship (SAR) Study of Spautin-1 to Entail the Discovery of Novel NEK4 Inhibitors” (International Journal of Molecular Sciences, 2021)",
  "assay_in_all_cases": "biochemical",
  "design_in_all_cases": "Eurofins KinaseProfiler full panel at Km ATP, residual kinase activity (%) relative to DMSO",
  "key": {"CaMKIIδ(h)": {"molecular_target": "T1, CaMKIIδ(h) (Homo sapiens, UniProt Q13557)", "T1 construct": "gene CAMK2D", "T1 sequence (Q13557 whole entry)": "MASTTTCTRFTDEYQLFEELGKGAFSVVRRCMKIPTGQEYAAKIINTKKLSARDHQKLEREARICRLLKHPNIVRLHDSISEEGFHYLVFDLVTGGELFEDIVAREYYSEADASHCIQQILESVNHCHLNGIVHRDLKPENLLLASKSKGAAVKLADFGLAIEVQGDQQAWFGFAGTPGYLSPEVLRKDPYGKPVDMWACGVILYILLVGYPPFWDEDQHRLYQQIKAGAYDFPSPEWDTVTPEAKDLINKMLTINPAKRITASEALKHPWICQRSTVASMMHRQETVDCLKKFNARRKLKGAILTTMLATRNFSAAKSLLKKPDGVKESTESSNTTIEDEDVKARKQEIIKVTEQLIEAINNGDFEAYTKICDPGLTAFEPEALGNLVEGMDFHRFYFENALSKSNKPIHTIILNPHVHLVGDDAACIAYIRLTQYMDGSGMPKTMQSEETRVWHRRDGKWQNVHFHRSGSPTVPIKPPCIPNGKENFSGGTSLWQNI", "how_it_was_run": "(§1)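 Radiometric kinase activity assays were run with ATP at Km and compounds at 10 µM, and remaining activity (%) was reported. A separate competitive binding screen measured DNA-tagged kinase displaced from immobilized active-site ligands by qPCR, giving percent kinase still bound at 10 µM compound in DMSO.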"}, "DRAK2(h)": {"molecular_target": "T2, DRAK2(h) (Homo sapiens, UniProt O94768)", "T2 construct": "gene STK17B", "T2 sequence (O94768 1-372)": "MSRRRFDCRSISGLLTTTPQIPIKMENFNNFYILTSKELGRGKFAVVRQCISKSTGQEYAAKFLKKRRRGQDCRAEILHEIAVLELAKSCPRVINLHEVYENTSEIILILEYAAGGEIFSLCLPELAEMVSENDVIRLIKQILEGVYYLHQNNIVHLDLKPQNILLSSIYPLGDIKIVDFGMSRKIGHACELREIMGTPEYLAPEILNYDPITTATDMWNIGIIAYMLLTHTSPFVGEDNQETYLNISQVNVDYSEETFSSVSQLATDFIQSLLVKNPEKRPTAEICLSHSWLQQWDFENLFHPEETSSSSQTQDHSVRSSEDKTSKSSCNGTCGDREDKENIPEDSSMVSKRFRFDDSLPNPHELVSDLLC", "how_it_was_run": "as §1"}, "JNK3(h)": {"molecular_target": "T3, JNK3(h) (Homo sapiens, UniProt P53779)", "T3 construct": "gene MAPK10", "T3 sequence (P53779 whole entry)": "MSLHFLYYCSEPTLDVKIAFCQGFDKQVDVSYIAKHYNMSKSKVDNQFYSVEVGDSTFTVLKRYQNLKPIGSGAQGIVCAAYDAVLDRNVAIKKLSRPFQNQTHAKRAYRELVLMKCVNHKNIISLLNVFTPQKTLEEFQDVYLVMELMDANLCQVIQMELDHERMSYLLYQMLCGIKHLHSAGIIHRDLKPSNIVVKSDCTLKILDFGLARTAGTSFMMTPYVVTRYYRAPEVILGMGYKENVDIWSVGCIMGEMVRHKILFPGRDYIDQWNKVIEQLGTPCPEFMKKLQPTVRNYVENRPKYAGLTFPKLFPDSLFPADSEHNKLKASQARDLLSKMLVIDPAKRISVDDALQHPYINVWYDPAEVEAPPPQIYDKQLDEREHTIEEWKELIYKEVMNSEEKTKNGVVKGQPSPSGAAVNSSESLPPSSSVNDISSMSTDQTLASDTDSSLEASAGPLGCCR", "how_it_was_run": "as §1"}, "MKK6(h)": {"molecular_target": "T4, MKK6(h) (Homo sapiens, UniProt P52564)", "T4 construct": "gene MAP2K6", "T4 sequence (P52564 1-334)": "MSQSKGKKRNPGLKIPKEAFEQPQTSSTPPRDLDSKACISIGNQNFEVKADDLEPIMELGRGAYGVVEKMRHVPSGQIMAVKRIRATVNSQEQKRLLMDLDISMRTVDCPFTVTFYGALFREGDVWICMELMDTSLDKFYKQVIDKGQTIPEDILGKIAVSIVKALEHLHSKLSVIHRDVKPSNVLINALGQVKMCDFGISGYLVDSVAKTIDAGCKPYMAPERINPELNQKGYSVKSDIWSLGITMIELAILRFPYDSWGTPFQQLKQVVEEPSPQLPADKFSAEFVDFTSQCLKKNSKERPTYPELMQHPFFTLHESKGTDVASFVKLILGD", "how_it_was_run": "as §1"}, "[1]": {"molecular_target": "T5, PI3 Kinase (p110b/p85b)(m) (Mus musculus, UniProt Q8BTI9)", "T5 construct": "gene Pik3cb", "T5 sequence (Q8BTI9 whole entry)": "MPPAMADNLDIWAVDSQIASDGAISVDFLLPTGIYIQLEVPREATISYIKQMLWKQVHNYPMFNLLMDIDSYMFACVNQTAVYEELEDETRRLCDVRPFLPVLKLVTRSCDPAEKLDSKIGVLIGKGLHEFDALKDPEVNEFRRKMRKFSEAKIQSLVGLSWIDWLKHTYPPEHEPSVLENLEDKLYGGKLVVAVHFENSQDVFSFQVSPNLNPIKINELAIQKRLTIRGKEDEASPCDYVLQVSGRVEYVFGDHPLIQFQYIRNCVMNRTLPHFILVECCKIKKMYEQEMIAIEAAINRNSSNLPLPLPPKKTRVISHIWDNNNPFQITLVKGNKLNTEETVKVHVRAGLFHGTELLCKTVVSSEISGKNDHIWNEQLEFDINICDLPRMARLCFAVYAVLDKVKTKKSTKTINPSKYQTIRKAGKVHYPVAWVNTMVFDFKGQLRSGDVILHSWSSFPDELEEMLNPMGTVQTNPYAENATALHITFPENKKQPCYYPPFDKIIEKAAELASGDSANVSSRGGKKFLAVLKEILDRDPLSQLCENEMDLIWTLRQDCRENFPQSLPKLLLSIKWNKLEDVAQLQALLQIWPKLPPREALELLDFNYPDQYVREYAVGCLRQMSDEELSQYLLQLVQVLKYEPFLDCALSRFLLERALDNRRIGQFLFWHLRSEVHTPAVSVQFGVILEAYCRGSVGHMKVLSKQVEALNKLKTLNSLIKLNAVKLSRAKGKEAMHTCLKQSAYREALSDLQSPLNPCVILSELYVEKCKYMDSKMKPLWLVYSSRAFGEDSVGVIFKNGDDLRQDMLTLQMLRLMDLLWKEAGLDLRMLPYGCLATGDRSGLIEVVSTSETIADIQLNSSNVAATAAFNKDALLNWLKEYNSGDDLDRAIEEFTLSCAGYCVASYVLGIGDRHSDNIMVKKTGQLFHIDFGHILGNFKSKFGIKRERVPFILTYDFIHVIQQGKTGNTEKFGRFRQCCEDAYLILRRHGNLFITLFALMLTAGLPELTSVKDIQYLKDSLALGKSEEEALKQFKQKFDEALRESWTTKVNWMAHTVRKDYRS", "T5 sequence (O08908 whole entry partner)": "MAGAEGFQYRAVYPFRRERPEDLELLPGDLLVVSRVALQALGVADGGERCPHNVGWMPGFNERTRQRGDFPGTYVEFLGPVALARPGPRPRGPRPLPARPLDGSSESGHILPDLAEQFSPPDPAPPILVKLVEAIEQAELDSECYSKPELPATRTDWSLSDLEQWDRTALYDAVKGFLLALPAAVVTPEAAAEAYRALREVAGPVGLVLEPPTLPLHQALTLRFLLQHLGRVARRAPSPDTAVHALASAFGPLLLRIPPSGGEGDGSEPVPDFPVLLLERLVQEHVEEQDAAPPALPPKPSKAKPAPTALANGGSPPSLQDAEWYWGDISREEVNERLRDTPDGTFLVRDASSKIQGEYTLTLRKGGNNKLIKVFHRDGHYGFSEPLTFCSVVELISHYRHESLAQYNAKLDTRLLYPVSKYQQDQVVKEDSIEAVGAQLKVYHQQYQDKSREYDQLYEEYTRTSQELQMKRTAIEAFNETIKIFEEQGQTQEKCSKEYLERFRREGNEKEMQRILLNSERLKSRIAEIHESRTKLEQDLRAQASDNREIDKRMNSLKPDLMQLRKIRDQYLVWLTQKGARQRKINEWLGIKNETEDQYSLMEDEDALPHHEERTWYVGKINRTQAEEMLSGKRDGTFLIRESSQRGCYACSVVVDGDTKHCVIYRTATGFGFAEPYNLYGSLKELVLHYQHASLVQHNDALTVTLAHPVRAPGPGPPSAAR", "how_it_was_run": "as §1"}, "TAO1(h)": {"molecular_target": "T6, TAO1(h) (Homo sapiens, UniProt Q7L7X3)", "T6 construct": "gene TAOK1", "T6 sequence (Q7L7X3 1-1001)": "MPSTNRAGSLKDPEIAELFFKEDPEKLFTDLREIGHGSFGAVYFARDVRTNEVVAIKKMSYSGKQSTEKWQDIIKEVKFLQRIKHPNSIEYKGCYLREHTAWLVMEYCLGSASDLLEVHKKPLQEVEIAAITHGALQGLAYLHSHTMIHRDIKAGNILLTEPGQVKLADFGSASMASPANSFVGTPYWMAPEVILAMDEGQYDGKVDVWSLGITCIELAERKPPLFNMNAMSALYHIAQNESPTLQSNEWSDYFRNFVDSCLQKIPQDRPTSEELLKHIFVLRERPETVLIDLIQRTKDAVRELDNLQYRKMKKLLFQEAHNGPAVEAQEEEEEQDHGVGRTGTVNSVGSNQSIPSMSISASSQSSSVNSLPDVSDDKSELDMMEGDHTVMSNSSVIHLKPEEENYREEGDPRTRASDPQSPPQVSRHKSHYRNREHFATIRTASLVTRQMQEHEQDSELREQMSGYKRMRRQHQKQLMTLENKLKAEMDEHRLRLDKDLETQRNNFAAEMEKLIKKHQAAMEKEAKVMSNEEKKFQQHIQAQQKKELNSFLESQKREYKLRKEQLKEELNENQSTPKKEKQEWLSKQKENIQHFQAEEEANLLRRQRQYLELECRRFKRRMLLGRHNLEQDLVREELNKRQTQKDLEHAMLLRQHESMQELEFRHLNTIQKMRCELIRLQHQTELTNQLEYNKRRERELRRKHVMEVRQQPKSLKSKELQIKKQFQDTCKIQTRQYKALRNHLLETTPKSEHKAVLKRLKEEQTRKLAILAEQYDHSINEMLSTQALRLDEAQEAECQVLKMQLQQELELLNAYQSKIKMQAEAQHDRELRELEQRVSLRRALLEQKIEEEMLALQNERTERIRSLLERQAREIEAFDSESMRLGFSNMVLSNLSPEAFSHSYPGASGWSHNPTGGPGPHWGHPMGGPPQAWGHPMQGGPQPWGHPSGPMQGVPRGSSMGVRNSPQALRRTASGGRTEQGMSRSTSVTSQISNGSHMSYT", "how_it_was_run": "as §1"}, "[2]": {"details": "read-out: Residual activity (%) Spautin-1 5aa"}, "[3]": {"details": "read-out: Residual activity (%) 5as"}, "[4]": {"details": "read-out: Residual activity (%) 5at"}, "[5]": {"details": "read-out: Residual activity (%) 5ay"}},
  "note": "Read-outs that look alike come from different tables or passages of the source.",
  "data": [
    {"smiles": "Fc1ccc(CNc2ncnc3ccc(F)cc23)cc1", "note": "[5aa, 6-Fluoro-N-(4-fluorobenzyl)-4-Quinazolinamine]", "values": [
      {"measurement": "remaining activity at 10 µM", "setting": "CaMKIIδ(h); [2]", "value": 90, "unit": "%"},
      {"measurement": "remaining activity at 10 µM", "setting": "DRAK2(h); [2]", "value": 88, "unit": "%"},
      {"measurement": "remaining activity at 10 µM", "setting": "JNK3(h); [2]", "value": 90, "unit": "%"},
      {"measurement": "remaining activity at 10 µM", "setting": "MKK6(h); [2]", "value": 78, "unit": "%"},
      {"measurement": "remaining activity at 10 µM", "setting": "[1]; [2]", "value": 97, "unit": "%"},
      {"measurement": "remaining activity at 10 µM", "setting": "TAO1(h); [2]", "value": 99, "unit": "%"}
    ]},
    {"smiles": "Fc1ccc(CCNc2ncnc3ccc(F)cc23)cc1", "note": "[5as, 6-Fluoro-N-[2-(4-Fluorophenyl)Ethyl]-4-Quinazolinamine]", "values": [
      {"measurement": "remaining activity at 10 µM", "setting": "CaMKIIδ(h); [3]", "value": 79, "unit": "%"},
      {"measurement": "remaining activity at 10 µM", "setting": "DRAK2(h); [3]", "value": 73, "unit": "%"},
      {"measurement": "remaining activity at 10 µM", "setting": "JNK3(h); [3]", "value": 98, "unit": "%"},
      {"measurement": "remaining activity at 10 µM", "setting": "MKK6(h); [3]", "value": 84, "unit": "%"},
      {"measurement": "remaining activity at 10 µM", "setting": "[1]; [3]", "value": 86, "unit": "%"},
      {"measurement": "remaining activity at 10 µM", "setting": "TAO1(h); [3]", "value": 104, "unit": "%"}
    ]},
    {"smiles": "Fc1ccc2ncnc(NCCc3ccc(Cl)cc3)c2c1", "note": "[5at, N-[2-(4-Chlorophenyl)Ethyl]-6-Fluoro-4-Quinazolinamine]", "values": [
      {"measurement": "remaining activity at 10 µM", "setting": "CaMKIIδ(h); [4]", "value": 77, "unit": "%"},
      {"measurement": "remaining activity at 10 µM", "setting": "DRAK2(h); [4]", "value": 88, "unit": "%"},
      {"measurement": "remaining activity at 10 µM", "setting": "JNK3(h); [4]", "value": 107, "unit": "%"},
      {"measurement": "remaining activity at 10 µM", "setting": "MKK6(h); [4]", "value": 95, "unit": "%"},
      {"measurement": "remaining activity at 10 µM", "setting": "[1]; [4]", "value": 87, "unit": "%"},
      {"measurement": "remaining activity at 10 µM", "setting": "TAO1(h); [4]", "value": 97, "unit": "%"}
    ]},
    {"smiles": "COc1ccc2ncnc(Nc3cccc(F)c3)c2c1", "note": "[5ay, N-(3-Fluorophenyl)-6-Methoxy-4-Quinazolinamine]", "values": [
      {"measurement": "remaining activity at 10 µM", "setting": "CaMKIIδ(h); [5]", "value": 41, "unit": "%"},
      {"measurement": "remaining activity at 10 µM", "setting": "DRAK2(h); [5]", "value": 65, "unit": "%"},
      {"measurement": "remaining activity at 10 µM", "setting": "JNK3(h); [5]", "value": 90, "unit": "%"},
      {"measurement": "remaining activity at 10 µM", "setting": "MKK6(h); [5]", "value": 74, "unit": "%"},
      {"measurement": "remaining activity at 10 µM", "setting": "[1]; [5]", "value": 89, "unit": "%"},
      {"measurement": "remaining activity at 10 µM", "setting": "TAO1(h); [5]", "value": 95, "unit": "%"}
    ]}
  ]
}
